Results published in US20250296948A1, “SYNTHESIS OF NUCLEOSIDE DERIVATIVES” (Nucana plc, priority 2022, published 2025).

Assays:
Assay type in all cases: physicochemical
[1] = 6 month dry powder stability, Alpha Naphthol content by HPLC
Text: (§1) NUC-3373 prepared according to Example 3 and Comparative Example 4 was packed into a transparent LDPE bag which was then filled with nitrogen and tied with a strip seal. This bag was then placed into another transparent LDPE bag which was also filled with nitrogen. A silica gel packet was placed between the two bags before the outermost bag was tied with a strip seal. These bags were then placed in a triple laminated sun light barrier bag which was sealed with a heat sealer. The bags were kept in a HDPE container.
(§2) NUC-3373 was initially assayed by HPLC after manufacture (0 months) then after 1 and 2 and/or 3 and 6 months of storage at 2-8° C., 25° C. or 40° C.
The Alpha Naphthol content of the same batches was also determined by HPLC. The levels of the alpha naphthol impurity is a key indicator of stability of the tested material.

[2] = Solution stability, alpha naphthol (0.60 RRT) in DMA:Saline (80:20 v/v); design: 0.60 RRT (Alpha Naphthol): unit not given here; conditions: 400 mg/mL in DMA:Saline (80:20 v/v)
Method: Stability data is also provided in Table 4, which compares the levels of alpha naphthol (0.60 RRT) present in solutions of 400 mg/mL NUC-3373, prepared by Example 3 or 4, above, in DMA:Saline (80:20 v/v) at different temperatures measured over set periods of time. The tested solutions are suitable for infusion and injection and the temperatures and times measured are representative of the environments that solutions suitable for infusion and injection would typically be stored in.
In Table 4 the two values provided for each temperature at each time period, separated by “/”, represent different preparations (samples) of that synthesis.

[3] = 6 month dry powder stability, HPLC assay
Text: as §1, §2

Compound: C[C@H](NP(=O)(OC[C@H]1O[C@@H](n2cc(F)c(=O)[nH]c2=O)CC1O)Oc1cccc2ccccc12)C(=O)OCc1ccccc1 (stereo partly drawn) [Comparative Example 4, 5-fluoro-2′-deoxyuridine-5′-O-[1-naphthyl (benzoxy-L-alaninyl)] phosphate]
- Increase after 6 months, Alpha Naphthol by HPLC ([1]; 2-8 ° C.): None
- Alpha Naphthol by HPLC (% w/w) ([1]; 2-8 ° C., 0 months): 0.09 % w/w
- Alpha Naphthol by HPLC (% w/w) ([1]; 2-8 ° C., 3 months): 0.10 % w/w
- Alpha Naphthol by HPLC (% w/w) ([1]; 2-8 ° C., 6 months): 0.09 % w/w
- Increase after 6 months, Alpha Naphthol by HPLC ([1]; 25 ° C.): 0.1 % w/w
- Alpha Naphthol by HPLC (% w/w) ([1]; 25 ° C., 0 months): 0.09 % w/w
- Alpha Naphthol by HPLC (% w/w) ([1]; 25 ° C., 3 months): 0.10 % w/w
- Alpha Naphthol by HPLC (% w/w) ([1]; 25 ° C., 6 months): 0.10 % w/w
- Increase after 6 months, Alpha Naphthol by HPLC ([1]; 40 ° C.): 1.11 % w/w
- Alpha Naphthol by HPLC (% w/w) ([1]; 40 ° C., 0 months): 0.09 % w/w
- Alpha Naphthol by HPLC (% w/w) ([1]; 40 ° C., 1 month): 0.18 % w/w
- Alpha Naphthol by HPLC (% w/w) ([1]; 40 ° C., 2 months): 0.27 % w/w
- Alpha Naphthol by HPLC (% w/w) ([1]; 40 ° C., 3 months): 0.18 % w/w
- Alpha Naphthol by HPLC (% w/w) ([1]; 40 ° C., 6 months): 1.2 % w/w
- 0.60 RRT (Alpha Naphthol) ([2]; After 1 month at 2-8° C., first preparation (before "/")): 0.04/0.04
- 0.60 RRT (Alpha Naphthol) ([2]; After 1 month at 2-8° C., second preparation (after "/")): 0.04/0.04
- 0.60 RRT (Alpha Naphthol) ([2]; After 1 month at 25 ± 5° C., first preparation (before "/")): 0.29/0.29
- 0.60 RRT (Alpha Naphthol) ([2]; After 1 month at 25 ± 5° C., second preparation (after "/")): 0.29/0.29
- 0.60 RRT (Alpha Naphthol) ([2]; After 3 months at 2-8° C., first preparation (before "/")): 0.06/0.06
- 0.60 RRT (Alpha Naphthol) ([2]; After 3 months at 2-8° C., second preparation (after "/")): 0.06/0.06
- 0.60 RRT (Alpha Naphthol) ([2]; After 3 months at 25 ± 5° C., first preparation (before "/")): 0.45
- 0.60 RRT (Alpha Naphthol) ([2]; After 3 months at 25 ± 5° C., second preparation (after "/")): 0.46
- 0.60 RRT (Alpha Naphthol) ([2]; After 15 days at 2-8° C., first preparation (before "/")): 0.04/0.04
- 0.60 RRT (Alpha Naphthol) ([2]; After 15 days at 2-8° C., second preparation (after "/")): 0.04/0.04
- 0.60 RRT (Alpha Naphthol) ([2]; After 15 days at 25 ± 5° C., first preparation (before "/")): 0.19
- 0.60 RRT (Alpha Naphthol) ([2]; After 15 days at 25 ± 5° C., second preparation (after "/")): 0.20
- 0.60 RRT (Alpha Naphthol) ([2]; Initial): 0.02
- Decrease after 6 months, HPLC assay ([3]; 2-8 ° C.): None
- HPLC assay (% w/w on anhydrous and solvent free basis) ([3]; 2-8 ° C., 0 months): 100 % w/w
- HPLC assay (% w/w on anhydrous and solvent free basis) ([3]; 2-8 ° C., 3 months): 100 % w/w
- HPLC assay (% w/w on anhydrous and solvent free basis) ([3]; 2-8 ° C., 6 months): 100 % w/w
- Decrease after 6 months, HPLC assay ([3]; 25 ° C.): 0.1 % w/w
- HPLC assay (% w/w on anhydrous and solvent free basis) ([3]; 25 ° C., 0 months): 99.7 % w/w
- HPLC assay (% w/w on anhydrous and solvent free basis) ([3]; 25 ° C., 3 months): 99.5 % w/w
- HPLC assay (% w/w on anhydrous and solvent free basis) ([3]; 25 ° C., 6 months): 99.6 % w/w
- Decrease after 6 months, HPLC assay ([3]; 40 ° C.): 2.0 % w/w
- HPLC assay (% w/w on anhydrous and solvent free basis) ([3]; 40 ° C., 0 months): 99.7 % w/w
- HPLC assay (% w/w on anhydrous and solvent free basis) ([3]; 40 ° C., 1 month): 99.3 % w/w
- HPLC assay (% w/w on anhydrous and solvent free basis) ([3]; 40 ° C., 2 months): 99.0 % w/w
- HPLC assay (% w/w on anhydrous and solvent free basis) ([3]; 40 ° C., 3 months): 99.3 % w/w
- HPLC assay (% w/w on anhydrous and solvent free basis) ([3]; 40 ° C., 6 months): 97.7 % w/w

Compound: C[C@H](NP(=O)(OC[C@H]1O[C@@H](n2cc(F)c(=O)[nH]c2=O)CC1O)Oc1cccc2ccccc12)C(=O)OCc1ccccc1 (stereo partly drawn) [Example 3, Batch 3, 5-fluoro-2′-deoxyuridine-5′-O-[1-naphthyl (benzoxy-L-alaninyl)] phosphate]
- Increase after 6 months, Alpha Naphthol by HPLC ([1]; 2-8 ° C.): None
- Alpha Naphthol by HPLC (% w/w) ([1]; 2-8 ° C., 0 months): 0.18 % w/w
- Alpha Naphthol by HPLC (% w/w) ([1]; 2-8 ° C., 3 months): 0.18 % w/w
- Alpha Naphthol by HPLC (% w/w) ([1]; 2-8 ° C., 6 months): 0.17 % w/w
- Increase after 6 months, Alpha Naphthol by HPLC ([1]; 25 ° C.): None
- Alpha Naphthol by HPLC (% w/w) ([1]; 25 ° C., 0 months): 0.18 % w/w
- Alpha Naphthol by HPLC (% w/w) ([1]; 25 ° C., 3 months): 0.18 % w/w
- Alpha Naphthol by HPLC (% w/w) ([1]; 25 ° C., 6 months): 0.17 % w/w
- Increase after 6 months, Alpha Naphthol by HPLC ([1]; 40 ° C.): None
- Alpha Naphthol by HPLC (% w/w) ([1]; 40 ° C., 0 months): 0.18 % w/w
- Alpha Naphthol by HPLC (% w/w) ([1]; 40 ° C., 1 month): 0.17 % w/w
- Alpha Naphthol by HPLC (% w/w) ([1]; 40 ° C., 2 months): 0.17 % w/w
- Alpha Naphthol by HPLC (% w/w) ([1]; 40 ° C., 3 months): 0.17 % w/w
- Alpha Naphthol by HPLC (% w/w) ([1]; 40 ° C., 6 months): 0.15 % w/w
- Decrease after 6 months, HPLC assay ([3]; 2-8 ° C.): None
- HPLC assay (% w/w on anhydrous and solvent free basis) ([3]; 2-8 ° C., 0 months): 100.3 % w/w
- HPLC assay (% w/w on anhydrous and solvent free basis) ([3]; 2-8 ° C., 3 months): 101.9 % w/w
- HPLC assay (% w/w on anhydrous and solvent free basis) ([3]; 2-8 ° C., 6 months): 100.5 % w/w
- Decrease after 6 months, HPLC assay ([3]; 25 ° C.): None
- HPLC assay (% w/w on anhydrous and solvent free basis) ([3]; 25 ° C., 0 months): 100.3 % w/w
- HPLC assay (% w/w on anhydrous and solvent free basis) ([3]; 25 ° C., 3 months): 101.8 % w/w
- HPLC assay (% w/w on anhydrous and solvent free basis) ([3]; 25 ° C., 6 months): 101.0 % w/w
- Decrease after 6 months, HPLC assay ([3]; 40 ° C.): None
- HPLC assay (% w/w on anhydrous and solvent free basis) ([3]; 40 ° C., 0 months): 100.3 % w/w
- HPLC assay (% w/w on anhydrous and solvent free basis) ([3]; 40 ° C., 1 month): 100.6 % w/w
- HPLC assay (% w/w on anhydrous and solvent free basis) ([3]; 40 ° C., 2 months): 101.5 % w/w
- HPLC assay (% w/w on anhydrous and solvent free basis) ([3]; 40 ° C., 3 months): 102.2 % w/w
- HPLC assay (% w/w on anhydrous and solvent free basis) ([3]; 40 ° C., 6 months): 100.8 % w/w
